Series [1] concerns rabbit eye cornea. The series is described as follows: Surface anesthesia on the rabbit cornea, Regnier method (Regnier index). Type of series: in vivo. Conditions: for Local Anesthetic Activity (Regnier Index, Min—13, Max—1300) In the Dark / Local Anesthetic Activity (Regnier Index, Min—13, Max—1300) Under Irradiation (λ = 365 nm): 1% solution, 0.2 mL instilled, mean ± SD; for Local Anesthetic Activity (Regnier Index, Min—13, Max—1300) In the Dark: in the dark (E-form predominance); for Local Anesthetic Activity (Regnier Index, Min—13, Max—1300) Under Irradiation (λ = 365 nm): solution irradiated with UV 365 nm (Z-form predominance). The method, then:
Thus, the main biological property investigated in this work was the local anesthetic activity of the new derivatives in the dark (with a predominance of the E-form) and under irradiation (with a predominance of the Z-form). The evaluation of local anesthetic activity was conducted on the rabbit cornea using the Regnier method. […] RI values in darkness (451 ± 40) and under UV light irradiation (469 ± 37) for a 2% solution of lidocaine, used as a reference drug, were obtained previously and are independent of light exposure. A 4% aqueous solution of Kolliphor® ELP, used for solubilizing ethercaine and its derivatives and lacking intrinsic local anesthetic activity, was employed as a negative control. In vitro cytotoxicity studies were conducted to initially assess the safety of the compounds.
Non-anesthetized, mature male rabbits of a Soviet chinchilla breed weighing 2–3 kg, obtained from the KrolInfo farm (Orekhovo-Zuyevo, Russia), were used in this study. Animals were kept under standard conditions (humidity 50–60%, temperature 19–22 °C). A 12-h lighting cycle was maintained. Each animal was kept in a separate cage. Animals had ad libitum access to standard extruded feed “CHARA” (CJSC “Assortiment-Agro”, Turakovo Village, Moscow region, Russia) and clean drinking water. Water treatment was performed using a “7 TECHNOCOM” block modular system (LLC “7 TECH”, Moscow, Russia). For in vivo, surface anesthesia measurements, an in-house-made anesthesiometer with a fixed length of a nylon filament (l = 1.0 cm, d = 0.125 mm) was used. Statistical analysis was performed, and figures were plotted using the Python programming language’s standard functions and a Matplotlib package (Version 3.8) for Python. All biological data conformed to a normal distribution (Shapiro–Wilk’s W test, p > 0.05). All data are expressed as the mean ± standard deviation.
For determination of the rabbit eye cornea’s sensitivity using the surface anesthesia method, 12 rabbits with a basic sensitivity threshold (sensitivity threshold of the eye cornea to tactile impact of the anesthesiometer) of 1–2 touches were selected. They were used in experiments repeatedly with an interval of at least 5 days between the experiments. Each eye was considered as a separate experimental point. Three animals were used in each of the experimental groups (n = 6). Two animals (n = 4) were used in each of the negative control groups and in each of experimental groups with UV irradiation due to the expected lack of the effect and to minimize the number of animals in the experiment. Animals were randomly divided into groups. Before an experiment, the animals were immobilized, leaving the head free. Before each experiment, the animals’ eyelashes were cut out, and the basic threshold of sensitivity of the eye cornea to tactile contact was determined using an anesthesiometer.
The irradiation modes were described earlier. Experiments with animals were carried out in a darkened room with a 50W LED light source (λ = 625 nm), which lies outside the absorption bands of the UV/Vis spectrum of the test compound. Before the experiments, solutions of test compounds were irradiated for 5 min with UV light (λ = 365 nm, LED flashlight, 0.5 W).
The adaptation of a model of surface anesthesia on the rabbit’s cornea using the Regnier method for the study of light-controlled local anesthetics was described earlier. The test solution (0.2 mL) of the required concentration (2% for the lidocaine or 1% for the ethercaine and its derivatives) was instilled into each conjunctival sac. After that, the sensitivity threshold of the eye cornea to tactile impact was determined. The first determination was performed at the 8th minute of the experiment and then at the 10th, 12th, 15th, 20th, 25th, 30th, 35th, 40th, 45th, 50th, 55th, and 60th min (13 values overall). […]

Series [2] is described as follows: In vitro cytotoxicity, MTT test, 24 h incubation. In kind it is cell-based, human. Conditions: human, dermal fibroblast cells (DF2), DF2 fibroblasts. The method, then: (§1) The culture of dermal fibroblast cells (DF2) was obtained from the collection of the Institute of Cytology of the Russian Academy of Sciences (Saint Petersburg, Russia). The cells were cultured in plastic vials with a cell growth surface of 25 cm^2 (Costar, Richmond, VA, USA) on DMEM/F12 medium with the addition of L-glutamine and 10% fetal bovine serum (FBS) (PanEco, Moscow, Russia). The cells were cultured at 37 °C in a humid atmosphere with a content of 5% CO2 (Binder CO2 incubator, Germany). Cell lines from 3 to 7 passages were used in the work. To conduct experiments to evaluate the cytotoxicity of compounds, cells were sieved into 96-well culture plates at a concentration of 10^5 cells per ml, incubated at 37 °C (humidified atmosphere, 5% carbon dioxide) for 24–28 h. Further, 50 µL of the studied substances was added. The cells were incubated with the compounds for 24 h at 37 °C. Next, the cytotoxic effect of the substances was evaluated by a colorimetric method using an MTT test and visually, using an inverted microscope. The criterion for evaluating the specific activity of the compound was the value of IC50, the concentration at which 50% death of culture cells was noted.

Series [3] is described as follows: Z-E isomerization half-life by UV/Vis spectrophotometry after 365 nm irradiation. Type of series: physicochemical. Conditions: for τ1/2 (DMSO), Z-E isomerization half-life: RT, after 365 nm 5 min; for τ1/2 (Aqueous Kolliphor ELP), Z-E isomerization half-life: aqueous 4% Kolliphor ELP solution. The method, then: As one of the main physicochemical properties of photopharmacological agents, the Z-E half-life was investigated, which determines the stability of the Z-isomer. The Z-E half-lifes were measured using UV/Vis spectrophotometry, converting the compound to the Z-isomer by irradiating with UV light and observing the change in absorption intensity due to reverse Z-E relaxation.
Z-E isomerization half-life was determined using UV/Vis spectroscopy. Solutions were prepared and kept in the dark at RT before the experiment. First, the spectrum in the dark was registered ( PSSdark) , which corresponds to the photostationary state (PSS) with E-isomer predominance. Then, the cuvette with the solution was irradiated with UV light (λ = 365 nm) for 5 min to give the PSS with Z-isomer predominance. The corresponding spectrum was registered ( PSS365nm) . During the subsequent isomerization, the kinetics of changes in the absorption value were recorded at the wavelength of the absorption maximum corresponding to the E-isomer ( λmax(E)) . Then, lnAt/A0 values were calculated using the Equation (1):(1) lnAt/A0=lnAbsPSS(dark)−Abstime/AbsPSS(dark)−AbsPSS(365nm), where AbsPSS(dark) , AbsPSS(365nm), and Abstime are absorbance values at λmax(E) in the dark at the beginning of the experiment, after UV light (λ = 365 nm) irradiation, and at different time points from 0 to 60 min, respectively. Then, a graph was plotted depending on lnAt/A0 values from time, the trend line was calculated, and a first-order rate constant (k) for the thermal back Z-E isomerization reaction was obtained as the slope of the trend line.
For a first-order reaction, half-life t1/2 can be calculated using the Equation (2):(2) t1/2=ln2/k

Series [4] relates to human dermal fibroblasts (DF2). Briefly: In vitro cytotoxicity, MTT test, 24 h incubation. In kind it is cell-based. How it is done: as §1

Where a name gives a salt, the structure may show the parent alone.

Consider `c1ccc(/N=N/c2ccc(OCCN3CCOCC3)cc2)cc1` [Compound 1, Ethercaine hydrochloride], for which the “Decrease in Regnier index under UV light irradiation (365 nm) versus darkness” value in series [1] (dark vs 365 nm) came out at 19 fold. In addition, the IC50 at 24 h in series [2] is 210 µM. In series [3], the “τ1/2 (DMSO), Z-E isomerization half-life” value is 2.1 h and the “τ1/2 (Aqueous Kolliphor ELP), Z-E isomerization half-life” value (shortened to “τ1/2 (Aqueous Kolliphor ELP)”) was found to be 0.833 h.
In turn, `c1ccc(/N=N/c2ccccc2OCCN2CCOCC2)cc1` [Compound 9a, 2-(2-(N-morpholino)-ethoxy)-azobenzene hydrochloride] yielded an IC50 at 24 h in series [2] of over 1000 µM. In series [3], the “τ1/2 (DMSO), Z-E isomerization half-life” value stood at 17.2 h and the “τ1/2 (Aqueous Kolliphor ELP)” value amounted to 125 h.
`c1ccc(/N=N/c2cccc(OCCN3CCOCC3)c2)cc1` [Compound 9b, 3-(2-(N-morpholino)-ethoxy)-azobenzene hydrochloride]: the IC50 at 24 h in series [2] is 240 µM. In addition, in series [3], the “τ1/2 (DMSO), Z-E isomerization half-life” value stood at 26.8 h and the “τ1/2 (Aqueous Kolliphor ELP)” value was 437 h.
For `CN1CCN(CCOc2ccc(/N=N/c3ccccc3)cc2)CC1` [Compound 14, 4-(2-(4-Methyl-1-Piperazino)-Ethoxy)-Azobenzene Dihydrochloride], inhibition in series [2] was half-maximal at 60 µM (IC50 at 24 h). Besides, the “τ1/2 (DMSO), Z-E isomerization half-life” value in series [3] amounted to 18.6 h. Further, in series [3] (value obtained for the solution in water), the “τ1/2 (Aqueous Kolliphor ELP column), Z-E isomerization half-life” value amounted to 3.5 h.
The compound `CCN(CC)CCOc1ccc(N=Nc2ccccc2)cc1.Cl` [Compound 16, 4-(2-(N,N-Diethylamino)Ethoxy)Azobenzene Hydrochloride] registered an IC50 at 24 h in series [2] of 90 µM. Also, in series [3], the “τ1/2 (DMSO), Z-E isomerization half-life” value amounted to 15.6 h and the “τ1/2 (Aqueous Kolliphor ELP)” value is on record as 6.0 h.
As to `Cl.Fc1cc(OCCN2CCOCC2)ccc1N=Nc1ccccc1` [Compound 20a, 2-fluoro-4-(2-(N-morpholino)-ethoxy)-azobenzene hydrochloride], in series [1], the “Local Anesthetic Activity (Regnier Index, Min—13, Max—1300) In the Dark” value is reported as 509 ± 34 (n = 6) and the “Local Anesthetic Activity (Regnier Index, Min—13, Max—1300) Under Irradiation (λ = 365 nm)” value was 64 ± 15 (n = 4). In series [4], this compound displayed an IC50 of 190 µM. In series [3], the “τ1/2 (DMSO), Z-E isomerization half-life” value was 7.8 h and the “τ1/2 (Aqueous Kolliphor ELP)” value worked out at 2.5 h.
Turning to `Cl.Fc1cc(OCCN2CCOCC2)cc(F)c1N=Nc1ccccc1` [Compound 20b, 2,6-difluoro-4-(2-(N-morpholino)-ethoxy)-azobenzene hydrochloride], in series [1], the “Local Anesthetic Activity (Regnier Index, Min—13, Max—1300) In the Dark” value is reported as 538 ± 37 (n = 6) and the “Local Anesthetic Activity (Regnier Index, Min—13, Max—1300) Under Irradiation (λ = 365 nm)” value is 58 ± 8 (n = 4). This compound displayed an IC50 in series [4] of 180 µM. Further, in series [3], the “τ1/2 (DMSO), Z-E isomerization half-life” value was 456 h and the “τ1/2 (Aqueous Kolliphor ELP)” value worked out at 1.9 h.
On the same counts, the results for `Cl.Fc1ccccc1N=Nc1ccc(OCCN2CCOCC2)cc1` [Compound 20c, 2′-fluoro-4-(2-(N-morpholino)-ethoxy)-azobenzene hydrochloride] are 590 ± 24 (n = 6), 70 ± 7 (n = 4), 190 µM, 3.6 h and 0.4 h.
With `Cl.Fc1ccccc1N=Nc1ccc(OCCN2CCOCC2)cc1F` [Compound 20d, 2,2′-difluoro-4-(2-(N-morpholino)-ethoxy)-azobenzene hydrochloride], in series [1], the “Local Anesthetic Activity (Regnier Index, Min—13, Max—1300) In the Dark” value is on record as 419 ± 57 (n = 6) and the “Local Anesthetic Activity (Regnier Index, Min—13, Max—1300) Under Irradiation (λ = 365 nm)” value is 84 ± 8 (n = 4). In series [4], this compound came in with an IC50 of 190 µM. In addition, in series [3], the “τ1/2 (DMSO), Z-E isomerization half-life” value stood at 8.1 h and the “τ1/2 (Aqueous Kolliphor ELP)” value amounted to 2.3 h.
Take `Cl.Fc1ccccc1N=Nc1c(F)cc(OCCN2CCOCC2)cc1F` [Compound 20e, 2,2′,6-trifluoro-4-(2-(N-morpholino)-ethoxy)-azobenzene hydrochloride]: in series [1], the “Local Anesthetic Activity (Regnier Index, Min—13, Max—1300) In the Dark” value is recorded as 395 ± 72 (n = 6) and the “Local Anesthetic Activity (Regnier Index, Min—13, Max—1300) Under Irradiation (λ = 365 nm)” value was 59 ± 18 (n = 4). The IC50 in series [4] turned out to be 190 µM. Further, in series [3], the “τ1/2 (DMSO), Z-E isomerization half-life” value is 703 h and the “τ1/2 (Aqueous Kolliphor ELP)” value amounted to 60 h.
The matching figures for `Cl.Fc1cccc(F)c1N=Nc1ccc(OCCN2CCOCC2)cc1` [Compound 20f, 2′,6′-difluoro-4-(2-(N-morpholino)-ethoxy)-azobenzene hydrochloride]: 570 ± 87 (n = 6), 76 ± 19 (n = 4), 210 µM, 24 h and 1.0 h.
As to `Cl.Fc1cc(OCCN2CCOCC2)ccc1N=Nc1c(F)cccc1F` [Compound 20g, 2,2′,6′-trifluoro-4-(2-(N-morpholino)-ethoxy)-azobenzene hydrochloride], in series [1], the “Local Anesthetic Activity (Regnier Index, Min—13, Max—1300) In the Dark” value is listed as 437 ± 37 (n = 6) and the “Local Anesthetic Activity (Regnier Index, Min—13, Max—1300) Under Irradiation (λ = 365 nm)” value is on record as 45 ± 9 (n = 4). In addition, in series [4], the IC50 came to 180 µM. Further, in series [3], the “τ1/2 (DMSO), Z-E isomerization half-life” value was determined as 137 h and the “τ1/2 (Aqueous Kolliphor ELP)” value is reported as 5.0 h.
`Cc1cnc(/N=N/c2ccc(OCCN3CCOCC3)cc2)s1` [Compound 25b, 2-(4-(2-(N-morpholino)-ethoxy)-phenylazo)-5-methylthiazole hydrochloride] displayed an IC50 at 24 h in series [2] of 440 µM. Also, in series [3], the “τ1/2 (DMSO), Z-E isomerization half-life” value is 0.083 h and the “τ1/2 (Aqueous Kolliphor ELP)” value was found to be 0.067 h.
